Test system: colon carcinoma PDX model Co9689A
Test: KcAng(1-7) on growth of colon carcinoma PDX Co9689A in mice
Assay type: in vivo, NMRI nu/nu mice (human PDX)
Settings: for T/C (treated tumor volume as percent of vehicle control): day 28 (day 41 of study)
Protocol: In vivo studies were conducted at EPO GmbH Berlin. Large studies (FIG. 1A, 2, 3, 4, 5) comprised 3 groups of 10 mice/group and 5 animals as reserve, as outlined in Table 1. Smaller studies (FIG. 1B, 1C, 1D) comprised 2 groups of mice of 3 mice per group. The animals were allocated to the various treatment groups (e.g. 0.2 μg/kg and 30 μg/kg) with a maximum of 10 animals per group. […] The groups received subcutaneous (s.c.) drug injection (for max. 28 days) as outlined in the Table 1.
NMRI nu/nu mice were used in this study. The animals were female at age of 6 to 8 weeks. The respective PDX tumors were inoculated subcutaneously (s.c.), and the tumors were grown to achieve palpable tumor sizes before start of the respective treatments. The PDX included breast (MaCa4151), colon (Co9689A), head & neck (HN10309), lung (Lu7433) and ovarian (OvCa13329) cancer (Table 2).
Treatment with KcAng(1-7) was started with palpable tumors after the randomization of animals regarding tumor volume. KcAng(1-7) was applied s.c. by daily injections at […] or 30 μg/kg dose for a maximum of 28 days (or earlier as defined by the humane end point for the study).
KcAng(1-7) was prepared as follows: The compounds was suspended in sterile PBS resulting in a clear solution. The remains of this formulation were stored at 4° C.
Tumor growth stimulatory or inhibitory activity of the KcAng(1-7) was evaluated by determination of tumor volumes (TV). During the study, tumor volumes and body weight were measured twice a week, and the ratio of the mean tumor volumes between the compound-treated group and the vehicle-treated group (T/C) was calculated.
Tumor volume=(tumor width)×(tumor width)×(tumor length)+2
T/C=T÷C • T: Mean estimated tumor volume of the compound-treated group • C: Mean estimated tumor volume of the vehicle-treated group

[1] = Gr. B 0.2 μg/kg/d s.c., Meas. 1
[2] = Gr. B 0.2 μg/kg/d s.c., Meas. 2
[3] = Gr. B 0.2 μg/kg/d s.c., Meas. 3
[4] = Gr. B 0.2 μg/kg/d s.c., Meas. 4
[5] = Gr. B 0.2 μg/kg/d s.c., Meas. 5
[6] = Gr. B 0.2 μg/kg/d s.c., Meas. 6
[7] = Gr. B 0.2 μg/kg/d s.c., Meas. 7
[8] = Gr. B 0.2 μg/kg/d s.c., Meas. 8
[9] = Gr. B 0.2 μg/kg/d s.c., Meas. 9 (day 28, day 41 of study)
[10] = Gr. C 30 μg/kg/d s.c., Meas. 9 (day 28, day 41 of study)

Lys-Asp-Arg-Val-Abu/Ala-Ile-His-Abu/Ala (KDRVAIHA; not fully specified; cyclic thioether (Abu/Ala bridge); VARIANT (5)..(5) /replace=“Abu”; VARIANT (8)..(8) /replace=“Abu”; SITE (1)..(8) /note=“Variant residues given in the sequence have no preference with respect to those in the annotations for variant positions”) [KcAng(1-7)]
T/C (treated tumor volume as percent of vehicle control) (0.2 μg/kg): 58%
T/C (treated tumor volume as percent of vehicle control) (30 μg/kg): 45%
effect on tumor growth (0.2 and 30 μg/kg, 28 days): statistically significant and dose dependent reduction in tumor growth
RTV Mean [1]: 1
RTV Median [1]: 1
T/C [1]: 99.5%
Tumor Vol. Mean [1]: 0.093 cm^3
Tumor Vol. Median [1]: 0.09 cm^3
RTV Mean [2]: 1.2
RTV Median [2]: 1.2
T/C [2]: 90.3%
Tumor Vol. Mean [2]: 0.107 cm^3
Tumor Vol. Median [2]: 0.108 cm^3
RTV Mean [3]: 1.4
RTV Median [3]: 1.4
T/C [3]: 87.4%
Tumor Vol. Mean [3]: 0.132 cm^3
Tumor Vol. Median [3]: 0.126 cm^3
RTV Mean [4]: 2
RTV Median [4]: 1.9
T/C [4]: 87.1%
Tumor Vol. Mean [4]: 0.188 cm^3
Tumor Vol. Median [4]: 0.139 cm^3
RTV Mean [5]: 2.7
RTV Median [5]: 2.6
T/C [5]: 84.6%
Tumor Vol. Mean [5]: 0.252 cm^3
Tumor Vol. Median [5]: 0.234 cm^3
RTV Mean [6]: 2.8
RTV Median [6]: 2.7
T/C [6]: 80.7%
Tumor Vol. Mean [6]: 0.267 cm^3
Tumor Vol. Median [6]: 0.238 cm^3
RTV Mean [7]: 3.2
RTV Median [7]: 2.8
T/C [7]: 71.6%
Tumor Vol. Mean [7]: 0.272 cm^3
Tumor Vol. Median [7]: 0.214 cm^3
RTV Mean [8]: 2
RTV Median [8]: 1.9
T/C [8]: 58.6%
Tumor Vol. Mean [8]: 0.192 cm^3
Tumor Vol. Median [8]: 0.178 cm^3
RTV Mean [9]: 2.7
RTV Median [9]: 2.5
T/C [9]: 58.1%
Tumor Vol. Mean [9]: 0.257 cm^3
Tumor Vol. Median [9]: 0.219 cm^3
RTV Mean (Gr. C 30 μg/kg/d s.c., Meas. 1): 1
RTV Median (Gr. C 30 μg/kg/d s.c., Meas. 1): 1
T/C (Gr. C 30 μg/kg/d s.c., Meas. 1): 99.5%
Tumor Vol. Mean (Gr. C 30 μg/kg/d s.c., Meas. 1): 0.093 cm^3
Tumor Vol. Median (Gr. C 30 μg/kg/d s.c., Meas. 1): 0.097 cm^3
RTV Mean (Gr. C 30 μg/kg/d s.c., Meas. 2): 1.2
RTV Median (Gr. C 30 μg/kg/d s.c., Meas. 2): 1.2
T/C (Gr. C 30 μg/kg/d s.c., Meas. 2): 91.5%
Tumor Vol. Mean (Gr. C 30 μg/kg/d s.c., Meas. 2): 0.108 cm^3
Tumor Vol. Median (Gr. C 30 μg/kg/d s.c., Meas. 2): 0.105 cm^3
RTV Mean (Gr. C 30 μg/kg/d s.c., Meas. 3): 1.3
RTV Median (Gr. C 30 μg/kg/d s.c., Meas. 3): 1.3
T/C (Gr. C 30 μg/kg/d s.c., Meas. 3): 80.9%
Tumor Vol. Mean (Gr. C 30 μg/kg/d s.c., Meas. 3): 0.122 cm^3
Tumor Vol. Median (Gr. C 30 μg/kg/d s.c., Meas. 3): 0.111 cm^3
RTV Mean (Gr. C 30 μg/kg/d s.c., Meas. 4): 1.7
RTV Median (Gr. C 30 μg/kg/d s.c., Meas. 4): 1.5
T/C (Gr. C 30 μg/kg/d s.c., Meas. 4): 72.1%
Tumor Vol. Mean (Gr. C 30 μg/kg/d s.c., Meas. 4): 0.156 cm^3
Tumor Vol. Median (Gr. C 30 μg/kg/d s.c., Meas. 4): 0.125 cm^3
RTV Mean (Gr. C 30 μg/kg/d s.c., Meas. 5): 2.2
RTV Median (Gr. C 30 μg/kg/d s.c., Meas. 5): 2.3
T/C (Gr. C 30 μg/kg/d s.c., Meas. 5): 68.6%
Tumor Vol. Mean (Gr. C 30 μg/kg/d s.c., Meas. 5): 0.205 cm^3
Tumor Vol. Median (Gr. C 30 μg/kg/d s.c., Meas. 5): 0.184 cm^3
RTV Mean (Gr. C 30 μg/kg/d s.c., Meas. 6): 2.5
RTV Median (Gr. C 30 μg/kg/d s.c., Meas. 6): 2.4
T/C (Gr. C 30 μg/kg/d s.c., Meas. 6): 72.5%
Tumor Vol. Mean (Gr. C 30 μg/kg/d s.c., Meas. 6): 0.24 cm^3
Tumor Vol. Median (Gr. C 30 μg/kg/d s.c., Meas. 6): 0.199 cm^3
RTV Mean (Gr. C 30 μg/kg/d s.c., Meas. 7): 3
RTV Median (Gr. C 30 μg/kg/d s.c., Meas. 7): 2.8
T/C (Gr. C 30 μg/kg/d s.c., Meas. 7): 75.6%
Tumor Vol. Mean (Gr. C 30 μg/kg/d s.c., Meas. 7): 0.287 cm^3
Tumor Vol. Median (Gr. C 30 μg/kg/d s.c., Meas. 7): 0.213 cm^3
RTV Mean (Gr. C 30 μg/kg/d s.c., Meas. 8): 2.2
RTV Median (Gr. C 30 μg/kg/d s.c., Meas. 8): 1.9
T/C (Gr. C 30 μg/kg/d s.c., Meas. 8): 63.3%
Tumor Vol. Mean (Gr. C 30 μg/kg/d s.c., Meas. 8): 0.208 cm^3
Tumor Vol. Median (Gr. C 30 μg/kg/d s.c., Meas. 8): 0.155 cm^3
RTV Mean [10]: 2.1
RTV Median [10]: 1.8
T/C [10]: 45.3%
Tumor Vol. Mean [10]: 0.201 cm^3
Tumor Vol. Median [10]: 0.134 cm^3
retarded tumor growth (colon carcinoma PDX upon treatment as in Example 1): ~40%

From US20220257698A1, “ANGIOTENSIN TYPE 2 (AT2) RECEPTOR AGONISTS FOR USE IN THE TREATMENT OF CANCER” (LANTHIOPEP B.V., priority 2019, published 2022)
